Assay results as given in PMC3802547 (Molecular bioSystems, 2011).

Molecular target: LasB (elastase) (Pseudomonas aeruginosa, UniProt P14756)
Assay: BODIPY-FL casein fluorescence protease assay with purified LasB
Assay type: biochemical

LasB (elastase), sequence (P14756 198-498): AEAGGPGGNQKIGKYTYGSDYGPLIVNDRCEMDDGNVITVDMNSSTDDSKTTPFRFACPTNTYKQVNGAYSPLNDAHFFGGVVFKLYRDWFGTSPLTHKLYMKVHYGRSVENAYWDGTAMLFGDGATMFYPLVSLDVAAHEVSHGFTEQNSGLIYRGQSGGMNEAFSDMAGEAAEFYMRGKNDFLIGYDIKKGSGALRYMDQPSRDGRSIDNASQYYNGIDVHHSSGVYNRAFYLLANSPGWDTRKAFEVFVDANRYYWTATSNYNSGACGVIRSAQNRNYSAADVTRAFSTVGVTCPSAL

## CCCCCCC[C@@H]1C[C@H]1CCC(=O)O [compound 4, lyngbyoic acid]
  Ki: 5.4 µM
